Source: US9511107B2, “Phenolic compositions derived from apple skin and uses thereof” (priority 2010, dated 2016)

Assays:
primary cortical neurons = test: LDH release of primary cortical neurons subjected to oxygen glucose deprivation (OGD); assay type: cell-based, mouse; conditions: comparison with F4; concentration not given
Procedure: Lactate dehydrogenase is a stable cytosolic enzyme that is released by necrotic cells upon membrane damage. The membrane integrity of cortical neurons was assayed by measuring the release of lactate dehydrogenase (LDH) using the Cytotoxicity Detection Kit^PLUS (Roche Applied Science). This assay kit detects LDH released into culture supernates by a coupled enzymatic reaction. Positive (100% LDH release) and negative (spontaneous LDH release) controls were prepared in triplicate according to the manufacturer's instructions. Primary cortical neuron cultures were prepared from cerebral cortices of embryonic day 16 CD1 mouse embryos. Cortical neuron cultures were exposed to vehicle (0.1% dimethyl sulfoxide (DMSO)) or F4 at concentrations of 1, 0.1 or 0.01 μg/mL in serum-free conditions for a period of 12 h before they were subjected to oxygen glucose deprivation (OGD). The neurons were exposed to vehicle or F4 at concentrations of 1, 0.1 or 0.01 μg/mL phenolics throughout the 12 h period of OGD. Following, cell culture supernates were collected for determination of released LDH. Absorbance was measured at 490 nm with a reference wavelength of 620 nm. Percentage of total LDH release was calculated by following the instructions provided by the manufacturer. Background was subtracted and LDH release in each sample was expressed as a percentage of the positive control.

[1] = humans, 1 g per day for 1 month; cited from earlier work

Row | Compound | reduction of death of primary cortical neurons subjected to OGD (F4 components and metabolites, FIG. 7) (primary cortical neurons) | safety [1]
1 | O=c1c(O[C@@H]2O[C@H](CO)[C@@H](O)[C@H](O)[C@H]2O)c(-c2ccc(O)c(O)c2)oc2cc(O)cc(O)c12 [Fraction Q3G, quercetin 3-O-glucoside] | no significant reduction | 
2 | COc1cc(-c2oc3cc(O)cc(O)c3c(=O)c2O[C@@H]2O[C@H](C(=O)O)[C@@H](O)[C@H](O)[C@H]2O)ccc1O [IR3GlcA] | no significant reduction | 
3 | O=c1c(O)c(-c2ccc(O)c(O)c2)oc2cc(O)cc(O)c12 [Q, Quercetin] | no significant reduction | safe
